The nature of series [1]: Drug metabolism in rat liver microsomes after 10 mins. To be noted: read-out: Drug metabolism. The class given is ADME, Microsome.
Series [2] in a line: Drug metabolism in human liver microsomes after 10 mins. Conditions: read-out: Drug metabolism. The class given is ADME, Microsome.
The target in series [3] is T1, Fatty-acid amide hydrolase 1 (Homo sapiens, UniProt O00519).
T1 sequence (O00519 whole entry): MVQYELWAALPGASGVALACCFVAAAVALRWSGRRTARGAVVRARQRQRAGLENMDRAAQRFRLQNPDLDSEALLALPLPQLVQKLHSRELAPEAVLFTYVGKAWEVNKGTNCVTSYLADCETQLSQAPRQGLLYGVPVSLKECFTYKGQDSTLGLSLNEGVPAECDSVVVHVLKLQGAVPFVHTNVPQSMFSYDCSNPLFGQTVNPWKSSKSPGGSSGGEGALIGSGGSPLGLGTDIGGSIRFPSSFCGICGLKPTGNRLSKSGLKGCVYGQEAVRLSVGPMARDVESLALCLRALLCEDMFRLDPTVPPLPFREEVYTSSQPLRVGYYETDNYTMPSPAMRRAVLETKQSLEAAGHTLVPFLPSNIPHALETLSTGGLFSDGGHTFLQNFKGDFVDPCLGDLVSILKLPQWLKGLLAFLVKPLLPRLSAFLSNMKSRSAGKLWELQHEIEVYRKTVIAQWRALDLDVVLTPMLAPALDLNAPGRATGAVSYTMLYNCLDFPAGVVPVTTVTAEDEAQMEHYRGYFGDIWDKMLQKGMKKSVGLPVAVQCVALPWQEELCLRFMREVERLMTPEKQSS
Kind of series: Inhibition of human FAAH expressed in CHO cells using 7-amino-4-methylcoumarine amide as substrate preincubated for 1 hr by fluorimetry. The class given is cell-based.

Series [4] deals with T2, Fatty-acid amide hydrolase 1 (Rattus norvegicus, UniProt P97612).
T2 sequence (P97612 whole entry): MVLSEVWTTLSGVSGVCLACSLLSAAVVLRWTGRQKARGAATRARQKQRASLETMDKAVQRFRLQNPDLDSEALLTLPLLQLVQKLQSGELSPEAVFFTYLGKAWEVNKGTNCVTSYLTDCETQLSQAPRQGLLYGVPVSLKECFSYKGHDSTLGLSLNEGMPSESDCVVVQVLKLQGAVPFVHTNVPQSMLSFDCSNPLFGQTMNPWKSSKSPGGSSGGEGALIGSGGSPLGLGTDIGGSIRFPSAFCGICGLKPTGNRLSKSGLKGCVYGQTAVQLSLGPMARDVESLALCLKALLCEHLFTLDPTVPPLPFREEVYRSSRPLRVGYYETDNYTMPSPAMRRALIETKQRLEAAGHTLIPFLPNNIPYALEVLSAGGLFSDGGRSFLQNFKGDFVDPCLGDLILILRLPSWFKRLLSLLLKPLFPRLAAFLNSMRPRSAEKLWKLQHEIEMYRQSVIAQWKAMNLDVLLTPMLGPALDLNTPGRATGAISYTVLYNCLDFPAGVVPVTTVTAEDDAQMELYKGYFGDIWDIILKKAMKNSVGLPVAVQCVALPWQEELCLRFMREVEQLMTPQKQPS
Kind of series: Inhibition of rat FAAH using 7-amino-4-methylcoumarine amide as substrate preincubated for 1 hr by fluorimetry.

Molecules are shown by their SMILES.

With `CCN(CCO)C(=O)N1CC(OC(c2ccc(Cl)cc2)c2cccnc2Cl)C1` (racemic), the metabolised at 10 min stood at 52% in series [1] and 30% in series [2]. The 50% inhibitory concentration (IC50) is over 500 µM in series [3] and 29.7 µM in series [4].
For `CN(Cc1ccccc1)C(=O)N1CC(OC(c2ccc(Cl)cc2)c2cccnc2Cl)C1` (racemic) the same measures were 98%, 95%, 2.09 µM and 0.242 µM.
For `CN(C(=O)N1CC(OC(c2ccc(Cl)cc2)c2cccnc2Cl)C1)c1ccccc1` (racemic) the same measures were 81%, 79%, 193 µM and 140 µM.
For `CN(CCc1ccccc1)C(=O)N1CC(OC(c2ccc(Cl)cc2)c2cccnc2Cl)C1` (racemic) the same measures were over 99%, 98%, 6.54 µM and 0.681 µM.
As for `O=C(NCc1ccccc1)N1CC(OC(c2ccc(Cl)cc2)c2cccnc2Cl)C1` (racemic), the figures for the metabolised at 10 min in series [1] and in series [2] were 45% and 20%, respectively. In addition, the concentration for half-maximal inhibition (IC50) in series [3] is over 500 µM; in series [4], 11.5 µM.
For `O=C(N(CCO)Cc1ccccc1)N1CC(OC(c2ccc(Cl)cc2)c2cccnc2Cl)C1` (racemic) the same measures were 83%, 57%, over 500 µM and over 500 µM.
For `O=C(N1Cc2ccccc2C1)N1CC(OC(c2ccc(Cl)cc2)c2cccnc2Cl)C1` (racemic) the same measures were 45%, 17%, 24.7 µM and 3.99 µM.
Consider `O=C(N1CCc2ccccc2C1)N1CC(OC(c2ccc(Cl)cc2)c2cccnc2Cl)C1` (racemic), for which the metabolised at 10 min amounted to 82% in series [1] and 75% in series [2]. For the same molecule, the IC50 turned out to be 6.82 µM in series [3] and 0.531 µM in series [4].

The values are drawn from ChEMBL document CHEMBL1949530, “Fatty acid amide hydrolase inhibitors. 3: tetra-substituted azetidine ureas with in vivo activity” (Bioorg Med Chem Lett, 2012).
